Experimental data published in patent US8669232B2, “Flavonol compounds, a bioactive extract/fraction from Ulmus wallichiana and its compounds for prevention for treatment of osteo-health related disorders” (Council of Scientific & Industrial Research, priority 2008, dated 2014).

Experiments:
[1] = tested on: growing female Sprague Dawley rats; assay: Attainment of peak bone mass: BMD by DEXA in growing rats; assay type: in vivo; conditions: 21 days old female rats, 5 mg/kg body weight oral daily, 30 days; vs vehicle
Procedure: 21 days old female Sprague Dawley rats were divided into three groups, each group consisted of 10 rats; control (vehicle treated), 750 mg/kg C002 crude extract, and 50 mg/kg 914/F004. Vehicle or treatments were given daily by oral route in gum acacia for 30 days. After completion of 30 days the rats were euthanized and there bones (femur, tibia, L1-L4 vertebra) were collected.
Bone Mineral Density of Femur (Global, head, neck), tibia (global, head, tibio-fibular separation point) and lumber vertebra (LV1, LV2, LV3, LV4) was determined by DEXA.
Female Sprague Dawley rats at weaning (˜21 d old) were divided into two groups consisting of 10 rats per group. Control rats were treated with gum acacia (vehicle) and the other group was treated with K058 at 5 mg/kg body weight. All the control and treated rats were given K058 or vehicle daily by oral route in gum acacia for 30 days. After completion of 30 days the rats were euthanized and their bones (femur, tibia, L1-L4 vertebra) were collected.
Bone mineral density of femur (global, head, neck), tibia (global, head, tibio-fibular separation point) and lumber vertebra (LV1, LV2, LV3, LV4) was determined by DEXA.

[2] = tested on: BMCs (Bone Marrow Cells) from growing female rats; assay: Ex-vivo bone marrow cultures from treated immature rats (ALP, mineralization); assay type: in vivo, Sprague Dawley rats; conditions: BMCs from growing rats treated with 5.0 mg/kg body weight for 30 days; vs controls
Text: Right femur of control and C002 treated rats were collected aseptically in PBS during autopsy from the rats. Soft tissue was removed, and the ends of the femur was clipped off using sterile scissors, a hole was created in the knee joint end of each bone with a needle, and the marrow was flushed out from the shaft with control medium (CM) which consisted of α-MEM supplemented with 10% fetal calf serum, 100 U/ml penicillin, 100 U/ml streptomycin (Sigma, Chemical Co., St. Louis, Mo., USA). The cells were suspended in this medium, and the suspensions were spun down at 800 rpm for 5 min. Cells were resuspended in fresh CM and counted using a haemocytometer. […] ALP activity was determined as described by Akiyama et al. with modifications. Briefly, cells were washed once with PBS, then, ALP activity was measured by adding ALP buffer (1 M diethanolamine, 0.5 mM MgCl2, 1 mg/ml PNPP, pH 9.0), incubating in 37° C., and absorbance (405 nm) was read using a microplate spectrophotometer. Statistical significance was determined by paired two-tailed Student's t-tests. […]
Right femur of control and K058 treated rats were collected aseptically in PBS during autopsy from the rats. […] Cells were resuspended in fresh CM and counted using a haemocytometer. […] ALP activity was determined as described by Akiyama et al. with modifications. […] Statistical significance was determined by paired two-tailed Student's t-tests.

O=C1c2c(cc(O)c([C@@H]3OC(CO)[C@@H](O)[C@H](O)C3O)c2O)O[C@@H](c2ccc(O)c(O)c2)[C@@H]1O (stereo partly drawn) [K058, (2S,3S)-(+)-3′,4′,5,7-tetrahydroxydihydroflavonol-6-C-β-D-glucopyranoside]
significantly more: BMD shaft region of femur [1] | ALP activity of BMCs (osteoblast differentiation) [2] | mineralization of BMCs (alizarin red-S) [2]
